From patent publication US10098878B2, “HIF-2α inhibitors for treating iron overload disorders” (The Board of Regents of the University of Texas System, priority 2014, dated 2018) come the findings set out here.

The pEC50 is −log10 of the EC50, conventionally taken in molar units. As usually defined, the pIC50 is −log10 of the IC50, conventionally taken in molar units.

One assay has as its system 786-O-Hif-Luc cells. Briefly: Luciferase Assay. The conditions noted are these: read-out: Luciferase EC50. In kind it is cell-based. The method, then:
A pool of infected cells were then selected against 2 μg/mL of puromycin (P8833, Sigma) for 10 days followed by limited dilution to select single clones.
Each concentration was tested in triplicate. After about 24 hours, luciferase activity was determined using ONE-Glo Luciferase Assay Reagent (E6110, Promega) following the manufacturer's recommended procedure. EC50 were calculated by using Dotmatics software.

Assay [1] deals with T1, HIF-2α HIS TAG-PASB Domain (Homo sapiens, UniProt Q99814).
T1 construct: 100 nM HIF-2α HIS TAG-PASB Domain
T1 sequence (Q99814 240-350 limits assumed): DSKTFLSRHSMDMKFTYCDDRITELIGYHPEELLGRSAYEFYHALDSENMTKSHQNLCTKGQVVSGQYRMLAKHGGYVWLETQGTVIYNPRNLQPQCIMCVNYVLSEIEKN
In words: HIF-2α Scintillation Proximity Assay (SPA). It is filed as binding. Conditions: 100 nM HIF-2α HIS TAG-PASB Domain. In short, it runs like this:
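IC50 values rest on percent inhibition, where the sample signal is scaled between high and low controls. Wells contain about 100 μL: compound dispensed as 2 μL of DMSO solution, 88 μL protein-probe mix and 10 μL of beads.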

Where [2] appears, read: 24 h, 786-O-Hif-Luc cells, about 24 hours.
[3] abbreviates: 150 nM Compound 211 probe, read-out: SPA IC50.
The mark [4] stands for this setting: SPA IC50, 150 nM Compound 211 probe.

The structures appear in SMILES notation. pEC50, pIC50: −log10 of the molar value. Where two headings read alike, the source gives them in different places. Some results are limits rather than exact numbers.

Turning to `N#Cc1cncc(Oc2ccc(S(N)(=O)=O)c3c2CC(F)(F)[C@H]3O)c1` [Compound 25, (S)-7-((5-Cyanopyridin-3-yl)oxy)-2,2-difluoro-3-hydroxy-2,3-dihydro-1H-indene-4-sulfonamide], the pEC50 with 786-O-Hif-Luc cells (setting [2]) was 5.96. In assay [1] (setting [3]), the negative logarithm of the IC50 (pIC50) was 4.75.
As to `O=S(=O)(c1ccc(Oc2cc(Cl)c[n+]([O-])c2)c2c1[C@H](O)C(F)(F)C2)C(F)(F)F` [Compound 28, (S)-3-Chloro-5-((2,2-difluoro-1-hydroxy-7-((trifluoromethyl)sulfonyl)-2,3-dihydro-1H-inden-4-yl)oxy)pyridine 1-oxide], the negative-log EC50 (pEC50) in the assay with 786-O-Hif-Luc cells (setting [2]) is 6.76. The negative-log IC50 (pIC50) in assay [1] (setting [3]) was 7.18.
Consider `N#Cc1cc(F)cc(Oc2ccc(S(=O)(=O)C(F)(F)F)c3c2CC(F)C3N)c1` (stereo not shown) [Compound 32, 3-((1-amino-2-fluoro-7-((trifluoromethyl)sulfonyl)-2,3-dihydro-1H-inden-4-yl)oxy)-5-fluorobenzonitrile], for which, in the assay with 786-O-Hif-Luc cells (setting [2]), the pEC50 was 5.61. In addition, in assay [1] (setting [3]), the pIC50 was 5.45.
In the same order, the values of `CS(=O)(=O)c1ccc(Oc2cc(F)cc(C#N)c2)c2c1C(=O)C(F)(Cl)C2` (stereo not shown) [Compound 33, 3-((2-chloro-2-fluoro-7-(methylsulfonyl)-1-oxo-2,3-dihydro-1H-inden-4-yl)oxy)-5-fluorobenzonitrile] are 4.71 and 6.51.
For `CS(=O)(=O)c1ccc(Oc2cc(F)cc(C#N)c2)c2c1[C@H](O)C(F)(Cl)C2` (stereo partly drawn) [Compound 34, 3-(((1S)-2-chloro-2-fluoro-1-hydroxy-7-(methylsulfonyl)-2,3-dihydro-1H-inden-4-yl)oxy)-5-fluorobenzonitrile], the pEC50 in the assay with 786-O-Hif-Luc cells (setting [2]) is 7.00. Moreover, the negative-log IC50 (pIC50) in assay [1] (setting [3]) is 7.01.
Consider `C[S+]([O-])c1ccc(Oc2cc(F)cc(C#N)c2)c2c1[C@H](O)C(F)(F)C2` (stereo partly drawn) [Compound 36, 3-[(1S)-2,2-Difluoro-1-hydroxy-7-methylsulfinyl-indan-4-yl]oxy-5-fluoro-benzonitrile], for which the negative logarithm of the EC50 (pEC50) in the assay on 786-O-Hif-Luc cells (setting [2]) is 5.64. In assay [1] (setting [3]), the negative logarithm of the IC50 (pIC50) was 5.70.
Take `N#Cc1cc(F)cc(Oc2ccc(S(=O)(=O)C(F)(F)F)c3c2CC(F)(F)[C@H]3NCCO)c1` [Compound 55, 3-[(1S)-2,2-difluoro-1-(2-hydroxyethylamino)-7-(trifluoromethylsulfonyl)indan-4-yl]oxy-5-fluoro-benzonitrile]: in the assay with 786-O-Hif-Luc cells (setting [2]), the pEC50 was 5.51. The pIC50 in assay [1] (setting [3]) is 5.31.
As to `CS(=O)(=O)c1ccc(Oc2cc(F)cc(C#N)c2)c2c1[C@H](O)C(F)(F)[C@H]2F` [Compound 57, 3-fluoro-5-[(1S,3S)-2,2,3-trifluoro-1-hydroxy-7-methylsulfonyl-indan-4-yl]oxy-benzonitrile], the pEC50 in the assay on 786-O-Hif-Luc cells (24 h) was 6.11. Also, in assay [1] (setting [3]), the negative logarithm of the IC50 (pIC50) was 6.14.
On to `CS(=O)(=O)c1ccc(Oc2cc(F)cc(C#N)c2)c2c1[C@H](O)C[C@@H]2F` [Compound 59, 3-fluoro-5-[(1R,3S)-3-fluoro-1-hydroxy-7-methylsulfonyl-indan-4-yl]oxy-benzonitrile], for which the pEC50 in the assay with 786-O-Hif-Luc cells (setting [2]) was 6.41. Also, in assay [1] (setting [3]), the negative logarithm of the IC50 (pIC50) was 6.64.
In the case of `CS(=O)(=O)c1ccc(Oc2cc(F)cc(C#N)c2)c2c1[C@H](O)[C@H](F)[C@@H]2O` [Compound 60, 3-fluoro-5-[(1S,2R,3R)-2-fluoro-1,3-dihydroxy-7-methylsulfonyl-indan-4-yl]oxy-benzonitrile], in the assay with 786-O-Hif-Luc cells (setting [2]), the negative-log EC50 (pEC50) is 5.88. Besides, in assay [1] (setting [3]), the pIC50 is 5.87.
Consider `C[C@@]1(F)Cc2c(Oc3cc(F)cc(C#N)c3)ccc(S(C)(=O)=O)c2[C@@H]1O` [Compound 64, 3-fluoro-5-(((1S,2R)-2-fluoro-1-hydroxy-2-methyl-7-(methylsulfonyl)-2,3-dihydro-1H-inden-4-yl)oxy)benzonitrile], for which the pEC50 in the assay with 786-O-Hif-Luc cells (setting [2]) was 5.55. In addition, in assay [1] (setting [3]), the pIC50 was 5.69.
The corresponding values for `C[C@@H]1Cc2c(Oc3cc(F)cc(C#N)c3)ccc(S(C)(=O)=O)c2[C@@H]1O` [Compound 65, 3-fluoro-5-(((1R,2R)-1-hydroxy-2-methyl-7-(methylsulfonyl)-2,3-dihydro-1H-inden-4-yl)oxy)benzonitrile] are 5.68 and 5.73.
`CS(=O)(=O)c1ccc(Oc2cc(F)cc(C#N)c2)c2c1[C@H](O)C(F)(F)[C@@H]2O` [Compound 76, 3-[(1S,3R)-2,2-difluoro-1,3-dihydroxy-7-methylsulfonyl-indan-4-yl]oxy-5-fluoro-benzonitrile]: the pEC50 with 786-O-Hif-Luc cells (setting [2]) was 6.20. For the same compound, the pIC50 in assay [1] (setting [3]) is 6.82.
For the compound `CS(=O)(=O)c1ccc(Oc2cncc(C#N)c2)c2c1[C@H](O)[C@H](F)C2` [Compound 77, 5-(((1S,2R)-2-fluoro-1-hydroxy-7-(methylsulfonyl)-2,3-dihydro-1H-inden-4-yl)oxy)nicotinonitrile], the pEC50 in the assay with 786-O-Hif-Luc cells (setting [2]) was 5.97. Also, in assay [1] (setting [3]), the negative-log IC50 (pIC50) is 5.74.
The corresponding values for `CS(=O)(=O)c1ccc(Oc2cncc(Br)c2)c2c1[C@H](O)C(F)(F)C2` [Compound 88, (S)-4-((5-Bromopyridin-3-yl)oxy)-2,2-difluoro-7-(methylsulfonyl)-2,3-dihydro-1H-inden-1-ol] are 6.32 and 7.27.
`N#Cc1cc(F)cc(Oc2ccc(S(N)(=O)=O)c3c2C[C@@H](F)[C@H]3O)c1` [Compound 98, (2R,3S)-7-(3-cyano-5-fluoro-phenoxy)-2-fluoro-3-hydroxy-indane-4-sulfonamide]: in the assay with 786-O-Hif-Luc cells (setting [2]), the negative logarithm of the EC50 (pEC50) is 6.65. For the same compound, the pIC50 in assay [1] (setting [3]) was 7.14.
`CS(=O)(=O)c1ccc(Oc2cc(F)cc(C#N)c2)c2c1[C@H](N)C(F)(F)[C@@H]2F` [Compound 110]: in the assay with 786-O-Hif-Luc cells (setting [2]), the pEC50 is 5.78. Also, the negative-log IC50 (pIC50) in assay [1] (setting [3]) is 6.29.
Turning to `N#Cc1c(Oc2cc(F)cc(Cl)c2)ccc2c1[C@@H](O)CS2(=O)=O` [Compound 112, (3R)-5-(3-chloro-5-fluoro-phenoxy)-3-hydroxy-1,1-dioxo-2,3-dihydrobenzothiophene-4-carbonitrile], the pEC50 in the assay on 786-O-Hif-Luc cells (setting [2]) was 6.65. The pIC50 in assay [1] (setting [3]) was 7.33.
In the case of `N#Cc1c(Oc2cc(F)cc(Cl)c2)ccc2c1C(O)C(F)(F)S2(=O)=O` (stereo not shown) [Compound 120, 5-(3-chloro-5-fluorophenoxy)-2,2-difluoro-3-hydroxy-2,3-dihydrobenzo[b]thiophene-4-carbonitrile 1,1-dioxide], the negative logarithm of the EC50 (pEC50) in the assay with 786-O-Hif-Luc cells was 5.38. The negative logarithm of the IC50 (pIC50) in assay [1] (setting [4]) is 7.35.
In the case of `NC1c2cc(Oc3cc(F)cc(Cl)c3)ccc2S(=O)(=O)C1(F)F` (stereo not shown) [Compound 122, 3-Amino-5-(3-chloro-5-fluorophenoxy)-2,2-difluoro-2,3-dihydrobenzo[b]thiophene 1,1-dioxide], the pEC50 in the assay with 786-O-Hif-Luc cells (setting [2]) is 5.43. Further, the pIC50 in assay [1] (setting [3]) is 6.70.
With `Cc1c(Oc2cc(F)cc(Cl)c2)ccc2c1C(O)C(F)(F)S2(=O)=O` (stereo not shown) [Compound 123, 5-(3-Chloro-5-fluorophenoxy)-2,2-difluoro-3-hydroxy-4-methyl-2,3-dihydrobenzo[b]thiophene 1,1-dioxide], the pEC50 with 786-O-Hif-Luc cells was 6.35. Also, the negative logarithm of the IC50 (pIC50) in assay [1] (setting [4]) is 7.82.
In the case of `O=S1(=O)CC(O)c2c1ccc(Oc1cc(F)cc(Cl)c1)c2C(F)F` (stereo not shown) [Compound 125, 5-(3-Chloro-5-fluorophenoxy)-4-(difluoromethyl)-3-hydroxy-2,3-dihydrobenzo[b]thiophene 1,1-dioxide], the pEC50 in the assay with 786-O-Hif-Luc cells (setting [2]) is 6.14. In addition, the negative-log IC50 (pIC50) in assay [1] (setting [3]) is 7.00.
`NC1CS(=O)(=O)c2ccc(Oc3cc(F)cc(Cl)c3)c(C(F)F)c21` (stereo not shown) [Compound 127, 3-Amino-5-(3-chloro-5-fluorophenoxy)-4-(difluoromethyl)-2,3-dihydrobenzo[b]thiophene 1,1-dioxide]: in the assay on 786-O-Hif-Luc cells (setting [2]), the pEC50 is 5.16. Also, in assay [1] (setting [3]), the pIC50 was 5.10.
In the same order, the values of `O=S1(=O)CC(O)c2c1ccc(Oc1cc(F)cc(F)c1)c2C(F)F` (stereo not shown) [Compound 134, 4-(Difluoromethyl)-5-(3,5-difluorophenoxy)-3-hydroxy-2,3-dihydrobenzo[b]thiophene 1,1-dioxide] are 6.14 and 7.11.
Consider `[2H]C1(O)c2c(ccc(Oc3cc(F)cc(Cl)c3)c2C(F)F)S(=O)(=O)C1(F)F` (stereo not shown) [Compound 135, 5-(3-Chloro-5-fluorophenoxy)-4-(difluoromethyl)-2,2-difluoro-3-hydroxy-2,3-dihydrobenzo[b]thiophene 1,1-dioxide-3-d], for which the negative logarithm of the EC50 (pEC50) with 786-O-Hif-Luc cells (786-O-Hif-Luc cells, about 24 hours) was 8.00. For the same compound, the negative-log IC50 (pIC50) in assay [1] (setting [4]) was greater than 8.30.
With `N#Cc1cc(F)cc(Oc2ccc3c(c2C(F)F)C(O)CS3(=O)=O)c1` (stereo not shown) [Compound 138, 3-((4-(Difluoromethyl)-3-hydroxy-1,1-dioxido-2,3-dihydrobenzo[b]thiophen-5-yl)oxy)-5-fluorobenzonitrile], the negative-log EC50 (pEC50) with 786-O-Hif-Luc cells (setting [2]) is 5.84. Also, the negative-log IC50 (pIC50) in assay [1] (setting [3]) is 6.15.
`NC1c2c(ccc(Oc3cc(F)cc(F)c3)c2Br)S(=O)(=O)C1(F)F` (stereo not shown) [Compound 140, 3-Amino-4-bromo-5-(3,5-difluorophenoxy)-2,2-difluoro-2,3-dihydrobenzo[b]thiophene 1,1-dioxide]: the pEC50 with 786-O-Hif-Luc cells (24 h) is 5.77. In assay [1] (setting [4]), the negative logarithm of the IC50 (pIC50) is greater than 8.30.
Regarding `COCCNC1c2c(ccc(Oc3cc(F)cc(F)c3)c2Br)S(=O)(=O)C1(F)F` (stereo not shown) [Compound 143, 4-Bromo-5-(3,5-difluorophenoxy)-2,2-difluoro-3-((2-methoxyethyl)amino)-2,3-dihydrobenzo[b]thiophene 1,1-dioxide], the negative-log EC50 (pEC50) with 786-O-Hif-Luc cells (setting [2]) was 5.75. In assay [1] (setting [3]), the pIC50 was greater than 8.30.
For `O=S1(=O)c2ccc(Oc3cncc(Cl)c3)c(C(F)F)c2C(O)C1(F)F` (stereo not shown) [Compound 145, 5-((5-Chloropyridin-3-yl)oxy)-4-(difluoromethyl)-2,2-difluoro-3-hydroxy-2,3-dihydrobenzo[b]thiophene 1,1-dioxide], the pEC50 in the assay on 786-O-Hif-Luc cells is 6.83. The pIC50 in assay [1] (setting [4]) was 6.64.
